Test results taken from paper PMC5449500, “Comparative Effects of Chloride Channel Inhibitors on LRRC8/VRAC-Mediated Chloride Conductance” (Frontiers in Pharmacology, 2017).
Values joined by “and” are separate entries in the source; they are usually repeats but may differ in a detail not shown here. Equal entries are not always repeated. “Also recorded” adds a separate entry of the source. Where two headings read alike, the source gives them in different places.

Key:
LRRC8/VRAC = biological target: T1, LRRC8/VRAC (Homo sapiens, UniProt Q8IWT6); assay: Patch-clamp whole-cell recording of hypotonicity-activated VRAC/LRRC8 chloride current (ICl,swell); assay type: cell-based; details: for inhibition at 10 µM / Inhibition at 10 μM (%) of chloride conductance: 10 μM inhibitor, -100 mV; for inhibition at 10 µM: read-out: Inhibition at 10 μM (%) of chloride conductance; for Hill coefficient (chloride conductance): WT HEK-293, fitted concentration-response curve at -100 mV; for IC50: read-out: IC50 (chloride conductance); for Effect on hypotonic-activated Cl- currents at 20 μM / inhibition at 20 µM: 20 μM inhibitor
T1 construct: tested in wild-type HEK-293 cells expressing LRRC8 proteins; endogenous in cells; host or cells: wild-type HEK-293 cells
T1 sequence (Q8IWT6 1-810): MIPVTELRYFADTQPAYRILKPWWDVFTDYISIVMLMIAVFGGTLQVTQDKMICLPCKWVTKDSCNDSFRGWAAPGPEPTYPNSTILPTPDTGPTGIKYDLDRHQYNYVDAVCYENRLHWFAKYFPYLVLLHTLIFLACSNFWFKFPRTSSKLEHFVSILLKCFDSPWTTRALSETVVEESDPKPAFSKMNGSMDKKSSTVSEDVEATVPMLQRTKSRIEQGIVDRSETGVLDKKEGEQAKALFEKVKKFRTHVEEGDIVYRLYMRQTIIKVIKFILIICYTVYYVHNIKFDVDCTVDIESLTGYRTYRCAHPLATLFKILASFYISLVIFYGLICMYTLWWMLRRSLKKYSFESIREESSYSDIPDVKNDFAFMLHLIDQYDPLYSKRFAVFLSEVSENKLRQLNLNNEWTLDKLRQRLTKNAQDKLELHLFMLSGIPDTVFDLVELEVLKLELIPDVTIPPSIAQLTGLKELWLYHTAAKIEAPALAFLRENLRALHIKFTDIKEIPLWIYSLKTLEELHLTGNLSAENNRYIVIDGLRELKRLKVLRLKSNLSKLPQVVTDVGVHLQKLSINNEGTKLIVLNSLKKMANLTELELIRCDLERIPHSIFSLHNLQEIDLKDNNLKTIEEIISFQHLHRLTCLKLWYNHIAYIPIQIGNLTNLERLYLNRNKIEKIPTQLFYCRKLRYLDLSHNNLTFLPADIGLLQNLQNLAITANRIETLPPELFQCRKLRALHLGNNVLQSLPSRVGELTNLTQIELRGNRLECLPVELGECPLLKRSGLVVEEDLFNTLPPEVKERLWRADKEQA
T1 sequence (Q7L1W4 1-858 partner): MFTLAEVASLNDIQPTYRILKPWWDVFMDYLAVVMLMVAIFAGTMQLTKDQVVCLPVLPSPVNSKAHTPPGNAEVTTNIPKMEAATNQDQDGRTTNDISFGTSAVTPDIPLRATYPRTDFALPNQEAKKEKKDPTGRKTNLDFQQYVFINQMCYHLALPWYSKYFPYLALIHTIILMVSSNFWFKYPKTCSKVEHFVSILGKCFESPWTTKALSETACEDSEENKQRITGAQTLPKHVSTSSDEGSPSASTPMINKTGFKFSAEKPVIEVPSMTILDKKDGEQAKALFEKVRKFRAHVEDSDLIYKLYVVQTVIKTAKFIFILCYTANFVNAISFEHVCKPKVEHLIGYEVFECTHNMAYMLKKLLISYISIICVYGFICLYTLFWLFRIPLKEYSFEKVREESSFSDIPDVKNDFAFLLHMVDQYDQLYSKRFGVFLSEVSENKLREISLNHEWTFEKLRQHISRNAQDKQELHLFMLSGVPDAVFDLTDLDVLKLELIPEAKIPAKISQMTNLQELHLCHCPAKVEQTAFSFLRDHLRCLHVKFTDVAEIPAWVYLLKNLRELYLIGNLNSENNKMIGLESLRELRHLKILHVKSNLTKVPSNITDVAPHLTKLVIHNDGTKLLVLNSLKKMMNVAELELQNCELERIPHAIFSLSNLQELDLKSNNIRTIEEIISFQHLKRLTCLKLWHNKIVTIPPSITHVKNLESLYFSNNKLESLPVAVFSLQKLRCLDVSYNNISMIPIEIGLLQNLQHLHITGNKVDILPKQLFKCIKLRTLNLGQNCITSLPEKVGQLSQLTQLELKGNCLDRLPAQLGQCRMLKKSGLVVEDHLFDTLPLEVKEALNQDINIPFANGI
Method: The ruptured-whole-cell configuration of the patch-clamp technique was used to measure the activation of VRAC conductance during hypotonic experimental conditions. Cell currents and cell capacitances were recorded using an EPC 10 amplifier [HEKA Elektronik, Lambrecht (Pfalz), Germany]. The membrane potential of the cells was held at -50 mV, and 400-ms pulses from -100 to +100 mV were applied in 20-mV increments. The I/V relationships were expressed as the mean current amplitudes measured at all potentials at 6–10 ms after the pulse onset.
The pipette solution contained (in mM) 140 NMDGCl, 10 HEPES (pH 7.4, HCl), 5 EGTA and 5 MgATP (290 mOsm.l^-1). The normal NMDGCl bath solution contained (in mM) 140 NMDGCl, 10 HEPES (pH 7.4, HCl), 1 CaCl2, 1 MgCl2, and ∼70 mannitol (340 mOsm.l^-1). This solution was designed to prevent the spontaneous activation of VRAC currents. Hypo-osmotic NMDGCl solution (270 mOsm.l^-1) was obtained by removing the mannitol from the NMDGCl bath solution.
Patch-clamp whole-cell recordings were performed in iso-osmotic bath solution (control condition), and the solution was rapidly exchanged to the hypo-osmotic solution. The hypotonic condition was maintained until the LRRC8/VRAC current had stabilized at its maximal value (3–6 min). The percent inhibition at each concentration of inhibitor was calculated at -100 mV holding potentials after at least 2 min of constant perfusion.
Concentration-response curves, IC50 and Hill slope were fitted and determined using the following equations:
Span=Top−Bottom y=Bottom+(Top−Bottom)/1+10^(LogIC50−x)^*Hill Slope

HEK-293 WT cells = assay: Regulatory volume decrease (RVD) after hypotonic challenge, calcein fluorescence self-quenching; assay type: cell-based, human; details: for RVD inhibition at 10 μM (%) / inhibition at 10 µM: 10 μM inhibitor, after 30 min; for Effect on RVD at 30 μM: 30 μM inhibitor; for inhibition at 10 µM: Homo sapiens, HEK293, 0.5 h
Method: Measurements of changes in cell volume were performed using the calcein fluorescence self-quenching method. Briefly, calcein at high concentrations undergoes spontaneous self-quenching, and its fluorescence intensity decreases with increasing calcein concentration ([Capó-Aponte et al., 2005]). The variation in the fluorescence due to self-quenching indirectly reflects the volume of the cell.
HEK-293 WT and HEK-293 LRRC8-KO cells were cultured on polylysine-coated 24-well plates for 2 days. The cells were then loaded for 40 min with a solution containing 10 μM calcein-AM (Sigma–Aldrich) and washed 3 times with 1 ml of isotonic medium containing (in mM) 145 NaCl, 5 KCl, 1 MgCl2, 1 CaCl2, 10 glucose, and 10 HEPES pH 7.4 (300 mOsm.l^-1). Under this control experimental condition, basal fluorescence was measured every 90 s for 10 min using a plate reader (Ex: 460 nm, Em: 520 nm; Synergy HT, Biotek). After the baseline recording period (10 min), the medium was exchanged and replaced with iso- or hypo-osmotic bath solution adjusted to 200, 150, or 100 mOsm.l^-1. The change in fluorescence induced by replacement of the medium was then recorded over the following 50 min. The experiments were performed under control conditions and in the presence of various concentrations of inhibitors. The percent inhibition resulting from exposure of the cells to solutions containing a concentration of 10 μM for each inhibitor was calculated after maintaining the cells in hypotonic bath solution in the presence of the inhibitor for 30 min.

CFTR = details: cited from earlier work
ICl,swell = system: ICl,swell; set-up: method as in Decher et al. (2001); details: ref Decher et al. (2001); cited from earlier work
[1] = system: other chloride channels (CFTR, CaCC, ClC); set-up: method as in Decher et al. (2001); details: 10 μM; ref Decher et al. (2001); cited from earlier work
CaCC = system: CaCC; set-up: method as in Namkung et al. (2013); details: ref Namkung et al. (2013); cited from earlier work
[2] = whole-cell, WT HEK-293, hypotonic solution 270 mOsm.l^-1, calculated at -100 mV
[3] = 100 mOsm.l^-1 hypotonic challenge, 10 µM
[4] = 100 mOsm.l^-1 hypotonic challenge

inhibition at 10 µM (LRRC8/VRAC; whole-cell)	Hill coefficient (chloride conductance) (LRRC8/VRAC; whole-cell)	IC50 (LRRC8/VRAC; [2])	Compound	RVD inhibition at 10 μM (%) (HEK-293 WT cells; [3])	Effect on RVD at 30 μM (HEK-293 WT cells; [4])	inhibition at 10 µM (HEK-293 WT cells; [4])	Effect on hypotonic-activated Cl- currents at 20 μM (LRRC8/VRAC; whole-cell)	inhibition at 20 µM (LRRC8/VRAC; whole-cell)	further results
18.3 ± 11.3%	2.2 ± 1.2	20 µM and 19.6 µM	Cc1ccc(C2Nc3ccccc3-n3c(-c4ccccc4)c4c(=O)n(C)c(=O)n(C)c4c32)o1 (stereo not shown) [PPQ-102]	29.8 ± 5.9%	fully inhibited RVD	30 ± 6%	–	–	Effect on ICl,swell at 1 μM (LRRC8/VRAC; 1 μM inhibitor, whole-cell): ineffective; inhibition at 30 µM (LRRC8/VRAC; 30 μM inhibitor, whole-cell): > 85%; IC50 (CFTR; ref Tradtrantip et al., 2009, read-out: IC50 (CFTR)): < 0.1 µM
23 ± 4%	0.8 ± 0.4	55 µM and 55.2 µM	O=C(O)c1cccnc1Nc1cccc(C(F)(F)F)c1 [NFA, niflumic acid]	19.9 ± 7.2%	maximally inhibited the RVD process	20 ± 7%	–	–	Inhibition at 10 μM (%) of chloride conductance (LRRC8/VRAC; whole-cell, 10 µM): 22.5 ± 4.0%; Effect on hypotonically activated Cl- current at 100 μM (LRRC8/VRAC; 100 μM inhibitor, whole-cell): maximal inhibitory effect
58.4 ± 2%	1.5 ± 0.6	6 µM and 5.5 µM	CCc1c(C)nc(SCC(=O)Nc2nc(-c3ccc(OC)cc3)cs2)[nH]c1=O [T16Ainh-A01]	39.8 ± 9.6%	maximal effect	40 ± 10%	–	–	inhibition at 3 µM (LRRC8/VRAC; 3 μM inhibitor, whole-cell, read-out: Inhibition of hypotonically activated Cl- current at 3 μM): 23 ± 5%; IC50 (CaCC): 1 µM
46.6 ± 8.8%	0.9 ± 0.4	10 µM and 9.5 µM	O=C(CNc1ccc2ccccc2c1)N/N=C/c1cc(Br)c(O)c(Br)c1O [GlyH-101]	–	–	–	–	> 85%	IC50 (CFTR; ref Muanprasat et al., 2004, read-out: IC50 for CFTR): ~5 µM
–	–	–	O=C(O)c1ccc(/C=C2\SC(=S)N(c3cccc(C(F)(F)F)c3)C2=O)cc1 [CFTRinh-172]	–	–	–	minor effect	–	Inhibition at 10 μM (%) of chloride conductance (LRRC8/VRAC; whole-cell): No effect; Effect on hypotonic-activated Cl- currents at up to 10 μM (LRRC8/VRAC; concentrations of up to 10 μM, whole-cell): almost no effect; Effect on VRAC current at up to 20 μM (LRRC8/VRAC; concentrations of up to 20 μM): no significant effect; IC50 (chloride conductance) (LRRC8/VRAC; [2]): No effect; RVD inhibition at 10 μM (%) (HEK-293 WT cells; [4]): No effect; Effect on RVD at up to 20 μM (HEK-293 WT cells; concentrations of up to 20 μM): no significant effect; Effect on RVD at doses lower than 30 μM (HEK-293 WT cells; lower doses than 30 μM): ineffective; IC50 (CFTR; ref Ma et al., 2002, read-out: IC50 (CFTR)): 0.3 µM

Compound	inhibition at 10 µM (LRRC8/VRAC; whole-cell)	Hill coefficient (chloride conductance) (LRRC8/VRAC; whole-cell)	IC50 (LRRC8/VRAC; [2])	RVD inhibition at 10 μM (%) (HEK-293 WT cells; [3])	Effect on RVD at 30 μM (HEK-293 WT cells; [4])	inhibition at 10 µM (HEK-293 WT cells; [4])	Effect on hypotonic-activated Cl- currents at 20 μM (LRRC8/VRAC; whole-cell)	inhibition at 20 µM (LRRC8/VRAC; whole-cell)	further results
CCCCC1(C2CCCC2)Cc2cc(OCCCC(=O)O)c(Cl)c(Cl)c2C1=O (stereo not shown) [DCPIB, 4-(2-butyl-6,7-dichlor-2-cyclopentyl-indan-1-on-5-yl) oxybutyric acid]	82.7 ± 3.2%	2.9 ± 1.1	5 µM and 4.8 µM	35.8 ± 3.1%	–	36 ± 3%	full blockade	> 90%	Effect on RVD at 20 μM (HEK-293 WT cells; 20 μM inhibitor, 100 mOsm.l^-1 hypotonic challenge): maximal effect; also recorded: completely impaired volume regulation; Block of ICl,swell at 10 μM (ICl,swell): more than 80%; Effect on other chloride channels (CFTR, CaCC, ClC) [1]: without any effect
